# Results as given in ChEMBL document CHEMBL3832044, “DailyMed|setid=dd8d7ec8-79b0-4152-8789-d247c77232ce | ROSIGLITAZONE MALEATE - rosiglitazone maleate tablet|West-ward Pharmaceutical Corp”.
# Assays:
# Format in all cases: ADME, organism-based
# Homo sapiens [1] = test: Oral clearance of Rosiglitazone evaluated after oral or intravenous administration of C-14 Rosiglitazone Maleate; details: in vivo, dosed compound id 5, dosed compound name ROSIGLITAZONE MALEATE
# [2] = (§1) Mean pharmacokinetic parameters for Rosiglitazone following single oral doses to 32 healthy fasted or fed subjects.; design: dose 8 mg, dose 2 mg, dose 1 mg, route oral; details: human, in vivo; dietary status Fasting, dose 1 mg, dosed compound id 50, dosed compound name ROSIGLITAZONE, gender male and female, regimen Single dose, route oral, tissue Plasma
# Homo sapiens [3] = test: as §1; design: dose 8 mg, dose 2 mg, dose 1 mg, route oral; details: in vivo, po, dosed compound id 50, dosed compound name ROSIGLITAZONE, gender male and female, regimen Single dose, tissue Plasma
# [4] = dietary status Fasting, dose 2 mg
# [5] = dietary status Fasting, dose 8 mg
smiles,measurement,setting,value
CN(CCOc1ccc(CC2SC(=O)NC2=O)cc1)c1ccccn1.O=C(O)/C=C\C(=O)O (configuration not stated) [ROSIGLITAZONE MALEATE],Excretion,Homo sapiens [1]; tissue Feaces,23%
same,Excretion,Homo sapiens [1]; tissue Urine,64%
same,CL/F,[2],50.5 mL/min
same,half-life,[2],3.16 h
same,CL/F,Homo sapiens [3]; [4],2.89 L/h
same,t1/2,Homo sapiens [3]; [4],3.15 h
same,CL/F,Homo sapiens [3]; [5],2.85 L/h
same,t1/2,Homo sapiens [3]; [5],3.37 h
same,CL/F,"Homo sapiens [3]; dietary status Fed, dose 8 mg",2.97 L/h
same,t1/2,"Homo sapiens [3]; dietary status Fed, dose 8 mg",3.59 h
same,AUC(0 to inf),Homo sapiens [3]; dietary status Fed,2890 ng·h/mL
same,Cmax,Homo sapiens [3]; dietary status Fed,432 ng/mL
